Measurements published in patent US20090068290A1, “BIFEPRUNOX DOSES FOR TREATING SCHIZOPHRENIA” (priority 2006, published 2009).

Legend:
[1] = test system: adult subjects with schizophrenia; test: CGI Improvement score, Clinical Study Two; assay type: in vivo, human; conditions: 40 mg, LOCF
Description: Rating scale assessments were performed weekly, except for week 5, to measure the change from baseline to endpoint of the PANSS total score. Other assessments included: PANSS positive symptom subscale score, PANSS negative symptom subscale score, PANSS general pschopathology subscale score, BPRS total score, BPRS psychosis score, the CGI-S score, the CGI-I score, responder rates based on the PANSS total score, and the Calgary Depression Scale for Schizophrenia (CDSS). […]
Subjects who completed this study had the option to continue in the long-term. […] Risperidone-treated subjects were titrated from 2 mg to 6 mg daily over a three-day period and were subsequently maintained at 6 mg/day for the remainder of the treatment period. […] Blood samples were also obtained at Screening/Baseline, Week 3, and Week 6 for clinical laboratory assessments.

[2] = test system: adult subjects with schizophrenia; test: BPRS psychosis cluster score, Clinical Study Three; assay type: in vivo, human; conditions: for Change from Baseline in BPRS Psychosis Cluster Score, Mean (SD) / Change from Baseline in BPRS Psychosis Cluster Score, Median / Change from Baseline in BPRS Psychosis Cluster Score, Trt Effect (bifeprunox—placebo) / mean change (SD) from Baseline to Endpoint in BPRS psychosis cluster score: LOCF; for Change from Baseline in BPRS Psychosis Cluster Score, Mean (SD) / Change from Baseline in BPRS Psychosis Cluster Score, Median / Change from Baseline in BPRS Psychosis Cluster Score, Trt Effect (bifeprunox—placebo): ITT population; for BPRS psychosis cluster score, treatment effect (bifeprunox—placebo): Endpoint LOCF; for mean change (SD) from Baseline to Endpoint in BPRS psychosis cluster score: ITT
Source text: SECONDARY OBJECTIVES To assess the efficacy of bifeprunox in treating schizophrenia using the Positive Symptom sub-scale score of the PANSS, the Negative Symptom sub-scale score of the PANSS, the General Psychopathology sub-scale of the PANSS, Brief Psychiatric Rating Scale (BPRS) total score derived from the PANSS, BPRS psychosis score derived from the PANSS, the Clinical Global Impression Severity of Illness score (CGI-S), the Clinical Global Impression Improvement score (CGI-I), CGI-I responder rate, PANSS responder rate based on the PANSS total score, Calgary Depression Scale for Schizophrenia (CDSS), and Subject Satisfaction rating.
There were four treatment arms in this study, approximately 144 subjects per arm. […] After completing the Single-Blind Placebo Lead-in Period of at least three days, bifeprunox-treated subjects were titrated from 0.25 mg up to 20 mg/day or 30 mg/day according to a standardized titration scheme over a seven- or eight-day period, respectively. When the assigned dose was reached, subjects were maintained at that dose for the remainder of the six week treatment period. […] Subjects were hospitalized (if not already inpatients) after eligibility for study entry was verified, starting from the Screening Visit until at least 10 days after Baseline. Subjects could be hospitalized longer than 10 days if considered medically necessary by the Investigator. Rating scale assessments for efficacy and abnormal movement disorders were done weekly except for Week 5. […] Subject satisfaction with study medication was assessed at Week 6.

[3] = test system: adult subjects with schizophrenia; test: PANSS responder rates, Clinical Study Three; assay type: in vivo, human; conditions: for PANSS 20% definition response rate No, % / PANSS 20% definition response rate Yes, %: Week 6/Endpoint, LOCF; for 20% PANSS responder rate: Endpoint LOCF
Description: There were four treatment arms in this study, approximately 144 subjects per arm. […] After completing the Single-Blind Placebo Lead-in Period of at least three days, bifeprunox-treated subjects were titrated from 0.25 mg up to 20 mg/day or 30 mg/day according to a standardized titration scheme over a seven- or eight-day period, respectively. When the assigned dose was reached, subjects were maintained at that dose for the remainder of the six week treatment period. […] Subjects were hospitalized (if not already inpatients) after eligibility for study entry was verified, starting from the Screening Visit until at least 10 days after Baseline. Subjects could be hospitalized longer than 10 days if considered medically necessary by the Investigator. Rating scale assessments for efficacy and abnormal movement disorders were done weekly except for Week 5. Safety assessments were performed at Screening, during treatment and at the end of the study. Subject satisfaction with study medication was assessed at Week 6. Samples of whole blood were obtained at Weeks 2, 4, and 6 for determination of bifeprunox in plasma.
CLINICAL STUDY THREE. A PANSS responder was defined as a subject whose PANSS total score decreased by 20% or more from Baseline to Endpoint. As exploratory analyses, responder rates were also analyzed using a 30%, 35%, 40%, and 50% definition of responder.

[4] = Pooled metabolic analysis, 6-week studies: body weight; conditions: for ≧7% weight decrease, (%) / ≧7% weight increase, (%) / Weight, Mean (SD) change from baseline: 6-week placebo controlled trials, BX total doses, RISP 6 mg, OLZ 15 mg, HAL 10 mg; for Weight, Mean (SD) change from baseline: endpoint
Source text: OBJECTIVE: To examine the metabolic effects of bifeprunox in patients with acute and stable schizophrenia.
METHODS: Metabolic data was compiled from one 6-month and four 6-week studies (i.e., a treatment period) of bifeprunox in patients with stable and acute schizophrenia, respectively. In the 6-month study, patients received bifeprunox (n=331) or placebo (PBO) (n=166). […] Metabolic evaluations included body weight, body mass index (BMI), plasma glucose and lipid profiles. Fasting glucose and lipid values were assessed in one 6-week study and in the 6-month study. Triglyceride:HDL ratio (TG:HDL) was calculated as a marker of insulin resistance. No statistical analyses were performed; only descriptive statistics are presented.

[5] = Bifeprunox 20 mg, Week 6/Endpoint
[6] = Bifeprunox 30 mg, Week 6/Endpoint

SMILES: O=c1[nH]c2cccc(N3CCN(Cc4cccc(-c5ccccc5)c4)CC3)c2o1 [Bifeprunox, 7-[4-([1,1′-biphenyl]-3-ylmethyl)-1-piperazinyl]-2(3H)-benzoxazolone]
- CGI Improvement No Change, % ([1]; Week 3): (23%)
- CGI Improvement Very Much Improved, % ([1]; Week 3): (5%)
- CGI Improvement Minimally Improved, % ([1]; Week 4): (29%)
- CGI Improvement Minimally Worse, % ([1]; Week 4): (9%)
- CGI Improvement Much Improved, % ([1]; Week 4): (20%)
- CGI Improvement Much Worse, % ([1]; Week 4): (14%)
- CGI Improvement No Change, % ([1]; Week 4): (21%)
- CGI Improvement Very Much Improved, % ([1]; Week 4): (7%)
- CGI Improvement Minimally Improved, % ([1]; Week 6/Endpoint): (26%)
- CGI Improvement Minimally Worse, % ([1]; Week 6/Endpoint): (11%)
- CGI Improvement Much Improved, % ([1]; Week 6/Endpoint): (19%)
- CGI Improvement Much Worse, % ([1]; Week 6/Endpoint): (15%)
- CGI Improvement No Change, % ([1]; Week 6/Endpoint): (20%)
- CGI Improvement Very Much Improved, % ([1]; Week 6/Endpoint): (9%)
- Change from Baseline in BPRS Psychosis Cluster Score, Mean (SD) ([2]; Bifeprunox 20 mg, Week 1): −1.4 (2.3)
- Change from Baseline in BPRS Psychosis Cluster Score, Median ([2]; Bifeprunox 20 mg, Week 1): −1
- Change from Baseline in BPRS Psychosis Cluster Score, Mean (SD) ([2]; Bifeprunox 20 mg, Week 2): −2.1 (2.9)
- Change from Baseline in BPRS Psychosis Cluster Score, Median ([2]; Bifeprunox 20 mg, Week 2): −2
- Change from Baseline in BPRS Psychosis Cluster Score, Mean (SD) ([2]; Bifeprunox 20 mg, Week 3): −2.6 (3.4)
- Change from Baseline in BPRS Psychosis Cluster Score, Median ([2]; Bifeprunox 20 mg, Week 3): −3
- Change from Baseline in BPRS Psychosis Cluster Score, Median ([2]; Bifeprunox 20 mg, Week 4): −3
- Change from Baseline in BPRS Psychosis Cluster Score, Mean (SD) [2, 5]: −3.1 (3.9)
- Change from Baseline in BPRS Psychosis Cluster Score, Median [2, 5]: −3
- Change from Baseline in BPRS Psychosis Cluster Score, Trt Effect (bifeprunox—placebo) [2, 5]: −0.6
- Change from Baseline in BPRS Psychosis Cluster Score, Mean (SD) ([2]; Bifeprunox 30 mg, Week 1): −1.7 (2.5)
- Change from Baseline in BPRS Psychosis Cluster Score, Median ([2]; Bifeprunox 30 mg, Week 1): −2
- Change from Baseline in BPRS Psychosis Cluster Score, Mean (SD) ([2]; Bifeprunox 30 mg, Week 2): −2.3 (3.3)
- Change from Baseline in BPRS Psychosis Cluster Score, Median ([2]; Bifeprunox 30 mg, Week 2): −2
- Change from Baseline in BPRS Psychosis Cluster Score, Mean (SD) ([2]; Bifeprunox 30 mg, Week 3): −2.7 (3.8)
- Change from Baseline in BPRS Psychosis Cluster Score, Median ([2]; Bifeprunox 30 mg, Week 3): −3
- Change from Baseline in BPRS Psychosis Cluster Score, Mean (SD) ([2]; Bifeprunox 30 mg, Week 4): −3.0 (4.0)
- Change from Baseline in BPRS Psychosis Cluster Score, Median ([2]; Bifeprunox 30 mg, Week 4): −3
- Change from Baseline in BPRS Psychosis Cluster Score, Mean (SD) [2, 6]: −3.2 (4.4)
- Change from Baseline in BPRS Psychosis Cluster Score, Median [2, 6]: −3
- Change from Baseline in BPRS Psychosis Cluster Score, Trt Effect (bifeprunox—placebo) [2, 6]: −0.5
- BPRS psychosis cluster score, treatment effect (bifeprunox—placebo) ([2]; bifeprunox 20 mg): −0.6
- mean change (SD) from Baseline to Endpoint in BPRS psychosis cluster score ([2]; bifeprunox 20 mg): −3.1 (3-9)
- BPRS psychosis cluster score, treatment effect (bifeprunox—placebo) ([2]; bifeprunox 30 mg): −0.5
- mean change (SD) from Baseline to Endpoint in BPRS psychosis cluster score ([2]; bifeprunox 30 mg): −3.2 (4.4)
- PANSS 20% definition response rate No, % ([3]; 20 mg): 58%
- PANSS 20% definition response rate Yes, % ([3]; 20 mg): 42%
- PANSS 20% definition response rate No, % ([3]; 30 mg): 61%
- PANSS 20% definition response rate Yes, % ([3]; 30 mg): 39%
- 20% PANSS responder rate ([3]; bifeprunox 20 mg): 42%
- 20% PANSS responder rate ([3]; bifeprunox 30 mg): 39%
- ≧7% weight decrease, (%) ([4]; baseline BMI 18.5-25 kg/m^2): 5.4%
- ≧7% weight increase, (%) ([4]; baseline BMI 18.5-25 kg/m^2): 2.4%
- ≧7% weight decrease, (%) ([4]; baseline BMI <18.5 kg/m^2): 3.7%
- ≧7% weight increase, (%) ([4]; baseline BMI <18.5 kg/m^2): 3.7%
- ≧7% weight decrease, (%) ([4]; baseline BMI >25-30 kg/m^2): 8.8%
- ≧7% weight increase, (%) ([4]; baseline BMI >25-30 kg/m^2): 1.8%
- ≧7% weight decrease, (%) ([4]; baseline BMI >30 kg/m^2): 5.8%
- ≧7% weight increase, (%) ([4]; baseline BMI >30 kg/m^2): 1.4%
- ≧7% weight decrease, (%) ([4]; baseline BMI All): 6.2%
- ≧7% weight increase, (%) ([4]; baseline BMI All): 2.1%
- Weight, Mean (SD) change from baseline ([4]; baseline BMI 18.5-25 kg/m^2): −0.4 (2.6) kg
- Weight, Mean (SD) change from baseline ([4]; baseline BMI <18.5 kg/m^2): 0.0 (1.7) kg
- Weight, Mean (SD) change from baseline ([4]; baseline BMI >25-30 kg/m^2): −0.9 (3.2) kg
- Weight, Mean (SD) change from baseline ([4]; baseline BMI >30 kg/m^2): −1.4 (3.9) kg
- Weight, Mean (SD) change from baseline ([4]; baseline BMI All): −0. (3.2) kg
- mean weight decrease ([4]; 6-week studies, pooled): 0.8 kg
- mean weight change ([4]; 6-week studies, pooled (overall summary)): -0.8 kg
- mean change in weight at endpoint ([4]; 6-week studies, patients with nausea or vomiting): -1.7 kg
- mean change in weight at endpoint ([4]; 6-week studies, patients without nausea or vomiting): -0.4 kg
